Tests used:
SCNT embryos = experiment: Preimplantation development of SCNT embryos cultured in vitro; format: cell-based, mouse; conditions: for No. of blastocyst / blastocyst (% per 1-cell): ntESC derivation experiment
Excerpt: C57BL/6J female mice were mated with DBA/2J males to produce B6D2F1/J (BDF1) mice. BDF1 and CD-1 (ICR) adult females were used for the collection of recipient oocytes and embryo transfer recipients, respectively. BDF1 mice were used for the collection of donor somatic cells for the analyses of development. (C57BL/6×CAST/EiJ) F1 mice were used for the collection of donor cells for RNA-seq. E13.5 embryos harboring GOF18 delta-PE (Jackson Laboratory, 004654: Tg(Pou5f1-EGFP)2Mnn, C57BL/6J background) were used for the isolation of mouse embryonic fibroblasts (MEF). All animal experiments were approved by the Institutional Animal Care and Use Committee of Harvard Medical School.
Cumulus cells were collected from adult BDF1 females through superovulation by injecting 7.5 IU of pregnant mare serum gonadotropin (PMSG; Harbor) and 7.5 IU of human chorionic gonadotropin (hCG; Millipore). Fifteen hours after the hCG injection, cumulus-oocyte complexes (COCs) were collected from the oviducts and briefly treated with Hepes-buffered potassium simplex-optimized medium (KSOM) containing 300 U/ml bovine testicular hyaluronidase (Calbiochem #385931) to obtain dissociated cumulus cells. Sertoli cells were collected from testes of 3- to 5-day-old BDF1 male mice as described (Matoba et al., 2011). Testicular masses were incubated in PBS containing 0.1 mg/ml collagenase (Life Technologies #17104-019) for 30 min at 37° C. followed by 5 min treatment with 0.25% Trypsine with 1 mM EDTA (Life Technologies #25200-056) at room temperature. After washing for four times with PBS containing 3 mg/ml bovine serum albumin, the dissociated cells were suspended in Hepes-KSOM medium.
Primary mouse embryonic fibroblast (MEF) cells were established from GOF18 delta-PE mouse embryos at 13.5 dpc. After removal of head and all organs, minced tissue from remaining corpus was dissociated in 500 μl of 0.25% Trypsine with 1 mM EDTA for 10 min at 37° C. Cell suspension was diluted with equal amount of DMEM (Life Technologies #11995-073) containing 10% FBS and Penicillin/Streptomycin (Life Technologies #15140-022) and pipetted up and down for 20 times. The cell suspension was diluted with fresh medium and plated onto 100 mm dishes and cultured at 37° C. Two days later, MEF cells were harvested and frozen. Frozen stocks of MEF cells were thawed and used for experiments after one passage.
siRNAs against mouse Suv39h1 (Life Technologies #s74607), Suv39h2 (Life Technologies #s82300) and Setdb1 (Life Technologies #s96549) were diluted in nuclease free water at 50 μM stock solutions. siRNAs were introduced to MEFs with Lipofectamine RNAi Max (Life technologies #35050-061) following manufacturer's protocol. Briefly, 1×10^5 MEF cells were seeded onto 24-well plate (day 0; see FIG. 5A). Twenty-four hours later, […] siRNAs were transfected into MEF cells using Lipofectamine RNAi Max (day 1). Twenty-four hours after the first transfection, the culture media was changed to fresh M293T media [DMEM supplemented with 10% FBS, 0.1 mM non-essential amino acids (Life technologies #11140-050), 2 mM GlutaMAX (Life technologies #35050-079), 50 U/ml penicillin-streptomycin and 0.1 mM 2-mercaptoethanol (Life technologies #21985-023)] (day 2). On day 3, MEF cells were reseeded onto 24-well plates at the density of 1×10^5 cells. Then transfection was repeated once as described above (day 4). Forty-eight hours after the second transfection (day 6), MEF cells were used for immunostaining, RT-qPCR or SCNT.
Somatic cell nuclear transfer was carried out as described previously (Matoba et al., 2011). Briefly, recipient MII oocytes were collected from superovulated adult BDF1 females by brief treatment with 300 U/ml bovine testicular hyaluronidase (Calbiochem). Isolated MII oocytes were enucleated in Hepes-buffered KSOM medium containing 7.5 μg/ml of cytochalasin B (Calbiochem #250233). […]

SCNT blastocysts = experiment: ntESC derivation from SCNT blastocysts; format: cell-based, mouse; conditions: for No. of blastocyst attached to feeder cells / No. of established ntESC lines / blastocyst attached to feeder cells (% per blast) / established ntESC lines (% per MII oocyte) / established ntESC lines (% per blast): cumulus donor cells (BDF1, female)
Protocol: Blastocysts were denuded by acid tyrode treatment and cultured on mitomycin treated MEF feeder cells and in DMEM supplemented with 5% FBS, 10% KnockOut serum replacement (Life Technologies #10828-028), 0.1 mM non-essential amino acids, 2 mM GlutaMAX, 50 U/ml penicillin-streptomycin, 0.1 mM 2-mercaptoethanol and 2000 U leukemia inhibitory factor (LIF, Millipore #ESG1107) at 37° C. 5% CO2. Four to five days later, outgrowths from attached embryos were dissociated with 0.25% trypsin and passaged all onto new feeder cells. On the following day, the medium was replaced with N2B27-LIF media [DMEM/F12 (Life Technologies #10565-042) supplemented with 0.1 mM non-essential amino acids, 2 mM GlutaMAX, 50 U/ml penicillin-streptomycin, 0.1 mM 2-mercaptoethanol, 0.5×N2 supplement (Life technologies #17502-048), 0.5× B27 supplement (Life technologies #17504-044), […] CHIR99021 (STEMGENT #04-0004), 0.5 μM PD0325901 (STEMGENT #04-0006) and 1000 U LIF]. Five days later, expanded cells were reseeded as established ntESC.

[1] = MEF donor cells (C57BL/6, male) treated with transfection reagent alone, injected mRNA 1800 ng/μl
[2] = Sertoli donor cells (BDF1, male), injected mRNA 1800 ng/μl
[3] = cumulus donor cells (BDF1, female), TSA treatment 15 nM for 8 h, water or mRNA 1800 ng/μl injected
[4] = cumulus donor cells (BDF1, female), no TSA, injected mRNA 1800 ng/μl
[5] = cumulus donor cells (BDF1, female), no TSA, mRNA 1800 ng/μl
[6] = TSA treatment 15 nM for 8 h, water or mRNA 1800 ng/μl injected

Substance: Kdm4d WT mRNA: in vitro transcribed full length mouse Kdm4d mRNA, encoding an H3K9me3-specific histone demethylase
- % 4-cell per 2-cell ± SD (SCNT embryos; [1]): 95.4 ± 5.5 %
- % blast per 2-cell ± SD (SCNT embryos; [1]): 82.0 ± 10.3 %
- % cleaved per 1-cell ± SD (SCNT embryos; [1]): 86.9 ± 8.8%
- % morula per 2-cell ± SD (SCNT embryos; [1]): 89.6 ± 7.9 %
- developmental efficiency of SCNT embryos (in words) (SCNT embryos; Sertoli cells or C57BL/6 background MEF cells as donor cells): significantly improved the developmental efficiency
- % 4-cell per 2-cell ± SD (SCNT embryos; [2]): 95.3 ± 3.6 %
- % blast per 2-cell ± SD (SCNT embryos; [2]): 81.2 ± 7.5 %
- % cleaved per 1-cell ± SD (SCNT embryos; [2]): 89.3 ± 8.4%
- % morula per 2-cell ± SD (SCNT embryos; [2]): 91.6 ± 6.4 %
- % 4-cell per 2-cell ± SD (SCNT embryos; [3]): 95.8 ± 0.0 %
- % cleaved per 1-cell ± SD (SCNT embryos; [3]): 94.1 ± 0.0%
- % morula per 2-cell ± SD (SCNT embryos; [3]): 93.8 ± 6.3 %
- % blast per 2-cell ± SD (SCNT embryos; cumulus donor cells (BDF1, female), TSA treatment 15 nM for 8 h, water or mRNA 1800 ng/μl injected, listed as Kdm4d WT): 87.5 ± 12.5 %
- % blast per 2-cell ± SD (SCNT embryos; cumulus donor cells (BDF1, female), TSA treatment 15 nM for 8 h, water or mRNA 1800 ng/μl injected, listed as Kdm4d mRNA): 87.5%
- % 4-cell per 2-cell ± SD (SCNT embryos; [4]): 98.9 ± 2.3 %
- % cleaved per 1-cell ± SD (SCNT embryos; [4]): 92.7 ± 6.2%
- % morula per 2-cell ± SD (SCNT embryos; [4]): 96.5 ± 4.4 %
- % blast per 2-cell ± SD (SCNT embryos; cumulus donor cells (BDF1, female), no TSA, injected mRNA 1800 ng/μl, 96 h culture, listed as Kdm4d): 88.6%
- % blast per 2-cell ± SD (SCNT embryos; cumulus donor cells (BDF1, female), no TSA, injected mRNA 1800 ng/μl, 96 h culture, listed as Kdm4d WT): 88.6 ± 3.9 %
- % blast per 2-cell ± SD (SCNT embryos; cumulus donor cells (BDF1, female), no TSA, injected mRNA 1800 ng/μl, 96 h culture, listed as wild-type Kdm4d mRNA): 88.6%
- No. of blastocyst (SCNT embryos; [3]): 21
- blastocyst (% per 1-cell) (SCNT embryos; [3]): 95.5%
- No. of blastocyst (SCNT embryos; [5]): 18
- blastocyst (% per 1-cell) (SCNT embryos; [5]): 94.7%
- efficiency of attachment or ntESC derivation per blastocyst, compared to control (in words) (SCNT blastocysts; SCNT blastocysts from cumulus donor cells): did not show any significant difference
- ntESC derivation efficiency based on the total number of MII oocytes used for SCNT (in words) (SCNT blastocysts; cumulus donor cells): greatly improved
- No. of blastocyst attached to feeder cells (SCNT blastocysts; [6]): 16
- No. of established ntESC lines (SCNT blastocysts; [6]): 11
- blastocyst attached to feeder cells (% per blast) (SCNT blastocysts; [6]): 76.2%
- established ntESC lines (% per MII oocyte) (SCNT blastocysts; [6]): (44.0) %
- established ntESC lines (% per blast) (SCNT blastocysts; [6]): (52.3) %
- No. of blastocyst attached to feeder cells (SCNT blastocysts; no TSA, mRNA 1800 ng/μl): 13
- No. of established ntESC lines (SCNT blastocysts; no TSA, mRNA 1800 ng/μl): 10
- blastocyst attached to feeder cells (% per blast) (SCNT blastocysts; no TSA, mRNA 1800 ng/μl): 72.2%
- established ntESC lines (% per MII oocyte) (SCNT blastocysts; no TSA, mRNA 1800 ng/μl): (50.0) %
- established ntESC lines (% per blast) (SCNT blastocysts; no TSA, mRNA 1800 ng/μl): (55.6) %
